# Experimental data published in patent US9617244B2, “Antibacterial quinoline derivatives” (JANSSEN PHARMACEUTICA NV, priority 2012, dated 2017).
# Test system: Mycobacterium smegmatis (ATCC607)
# Assay: In-vitro anti-bacterial activity against strain M. Smegmatis ATCC607
# Format: cell-based
# Details: 90% inhibitory concentration for bacterial growth, 48 hours, Alamar Blue fluorescence
# Experimental: D.1. In-Vitro Method for Testing Compounds for Anti-Bacterial Activity Against Strain M. Smegmatis ATCC607
# Flat-bottom, sterile 96-well plastic microtiter plates were filled with 180 μl of sterile deionized water, supplemented with 0.25% BSA. Subsequently, stock solutions (7.8× final test concentration) of compounds were added in 45 μl volumes to a series of duplicate wells in column 2 so as to allow evaluation of their effects on bacterial growth. Serial five-fold dilutions (45 μl in 180 μl) were made directly in the microtiter plates from column 2 to 11 using a customised robot system (Zymark Corp., Hopkinton, Mass.). Pipette tips were changed after every 3 dilutions to minimize pipetting errors with high hydrophobic compounds. Untreated control samples with (column 1) and without (column 12) inoculum were included in each microtiter plate. Approximately 250 CFU per well of bacteria inoculum, in a volume of 100 μl in 2.8× Mueller-Hinton broth medium, was added to the rows A to H, except column 12. The same volume of broth medium without inoculum was added to column 12 in row A to H. The cultures were incubated at 37° C. for 48 hours in a humidified 5% CO2 atmosphere (incubator with open air valve and continuous ventilation). At the end of incubation, two days after inoculation, the bacterial growth was quantitated fluorometrically. Therefore Alamar Blue (10×) was added to all wells in a volume of 20 μl and plates were incubated for another 2 hours at […]
# The fluorescence was read in a computer-controlled fluorometer (Cytofluor, Biosearch) at an excitation wavelength of 530 nm and an emission wavelength of 590 nm (gain 30). The percentage growth inhibition achieved by the compounds was calculated according to standard methods and expressed as IC90 (μg/ml) which defines the 90% inhibitory concentration for bacterial growth.
row,IC90 MSM 607,SMILES
1,>17.57 µg/mL,CS(=O)(=O)c1ccc2[nH]c(=O)c(C(c3ccc(Cl)cc3)C3(O)CCNC(Cc4ccc(F)c(F)c4)C3)cc2c1 (centres unmarked) [Compound 214]
2,17.19 µg/mL,CS(=O)(=O)c1ccc2[nH]c(=O)c(C(c3ccc(Cl)cc3)C3(O)CCNC(Cc4ccc(F)c(F)c4)C3)cc2c1 (centres unmarked) [Compound 215]
3,>14.80 µg/mL,Cc1cc(F)ccc1C1CC(O)(C(c2ccc(Cl)cc2)c2cc3cc(S(C)(=O)=O)ccc3[nH]c2=O)CCN1 (centres unmarked) [Compound 220]
4,2.96 µg/mL,Cc1cc(F)ccc1C1CC(O)(C(c2ccc(Cl)cc2)c2cc3cc(S(C)(=O)=O)ccc3[nH]c2=O)CCN1 (centres unmarked) [Compound 221]
5,>14.78 µg/mL,Cc1cc(F)ccc1C1CC(O)(C(c2ccc(Cl)cc2)c2cc3cc(S(C)(=O)=O)ccc3[nH]c2=O)CCN1 (centres unmarked) [Compound 222]
6,>14.83 µg/mL,Cc1cc(F)ccc1C1CC(O)(C(c2ccc(Cl)cc2)c2cc3cc(S(C)(=O)=O)ccc3[nH]c2=O)CCN1 (centres unmarked) [Compound 223]
7,5.92 µg/mL,Cc1cc(F)ccc1C1CC(O)(C(c2ccc(Cl)cc2)c2cc3cc(S(C)(=O)=O)ccc3[nH]c2=O)CCN1 (centres unmarked) [Compound 224]
8,>14.77 µg/mL,Cc1cc(F)ccc1C1CC(O)(C(c2ccc(Cl)cc2)c2cc3cc(S(C)(=O)=O)ccc3[nH]c2=O)CCN1 (centres unmarked) [Compound 225]
9,3.31 µg/mL,O=c1[nH]c2ccc(Br)cc2cc1C(c1ccc(Cl)cc1)C1(O)CCNCC1Cc1cccc(F)c1 (centres unmarked) [Compound 229]
10,1.18 µg/mL,CSc1ccc2[nH]c(=O)c(C(c3ccc(Cl)cc3)C3(O)CCNC(c4ccccc4)C3)cc2c1 (centres unmarked) [Compound 230]
11,2.62 µg/mL,CSc1ccc2[nH]c(=O)c(C(c3ccc(Cl)cc3)C3(O)CCNC(c4ccccc4)C3)cc2c1 (centres unmarked) [Compound 231]
12,5.93 µg/mL,CSc1ccc2[nH]c(=O)c(C(c3ccc(Cl)cc3)C3(O)CCNC(c4ccccc4)C3)cc2c1 (centres unmarked) [Compound 232]
13,1.32 µg/mL,CSc1ccc2[nH]c(=O)c(C(c3ccc(Cl)cc3)C3(O)CCNC(c4ccccc4)C3)cc2c1 (centres unmarked) [Compound 233]
14,3.71 µg/mL,CSc1ccc2[nH]c(=O)c(C(c3ccc(Cl)cc3)C3(O)CCNC(c4ccccc4)C3)cc2c1 (centres unmarked) [Compound 234]
15,6.60 µg/mL,CSc1ccc2[nH]c(=O)c(C(c3ccc(Cl)cc3)C3(O)CCNC(c4ccccc4)C3)cc2c1 (centres unmarked) [Compound 235]

# Same assay, conditions: Mycolicibacterium smegmatis, ATCC607, 48 h, 90% inhibitory concentration for bacterial growth, Alamar Blue fluorescence, read-out: IC90 MSM 607
row,IC90,SMILES
1,3.2 µg/mL,COc1nc2ccc(Br)cc2cc1C(c1cccc(Cl)c1)C1(O)CCNC(c2ccc(F)cc2C)C1 (centres unmarked) [Compound 173]
2,6.6 µg/mL,CSc1ccc2nc(O)c(C(c3ccccc3)C3(O)CCNC(c4ccc(F)cc4C)C3)cc2c1 (centres unmarked) [Compound 182]
3,2.77 µg/mL,COc1nc2ccc(SC)cc2cc1C(c1ccc(Cl)cc1)C1(O)CCNC(Cc2ccc(F)c(F)c2)C1 (centres unmarked) [Compound 188]
4,7.26 µg/mL,Cc1cc(F)ccc1C1CC(O)(C(c2ccccc2)c2cc3cc(-c4cccnc4)ccc3[nH]c2=O)CCN1 (centres unmarked) [Compound 236]

# Test system: Staphylococcus aureus (ATCC29213)
# Assay: In-vitro anti-bacterial activity, microtitre plate assay, IC90 determination (non-mycobacterial strains)
# Format: cell-based
# Details: 90% inhibitory concentration for bacterial growth, 24 hours, resazurin fluorescence
# Experimental: D.2. In-Vitro Method for Testing Compounds for Anti-Bacterial Activity Against Various Non-Mycobacterial Strains
# Preparation of Bacterial Suspensions for Susceptibility Testing:
# The bacteria used in this study were grown overnight in flasks containing 100 ml Mueller-Hinton Broth (Becton Dickinson—cat. no. 275730) in sterile de-ionized water, with shaking, at 37° C. Stocks (0.5 ml/tube) were stored at −70° C. until use. Bacteria titrations were performed in microtiter plates to detect the TCID50, in which TCID50 represents the dilution that gives rise to bacterial growth in 50% of inoculated cultures. In general, an inoculum level of approximately 100 TCID50 was used for susceptibility testing.
# Anti Bacterial Susceptibility Testing: IC90 Determination
# Flat-bottom, sterile 96-well plastic microtiter plates were filled with 180 μl of sterile deionized water, supplemented with 0.25% BSA. Subsequently, stock solutions (7.8× final test concentration) of compounds were added in 45 μl volumes in column 2 Serial five-fold dilutions (45 μl in 180 μl) were made directly in the microtiter plates from column 2 to reach column 11. Untreated control samples with (column 1) and without (column 12) inoculum were included in each microtiter plate. Depending on the bacteria type, approximately 10 to 60 CFU per well of bacteria inoculum (100 TCID50), in a volume of 100 μl in 2.8× Mueller-Hinton broth medium, was added to the rows A to H, except column 12. The same volume of broth medium without inoculum was added to column 12 in row A to H. The cultures were incubated at 37° C. for 24 hours under a normal atmosphere (incubator with open air valve and continuous ventilation). At the end of incubation, one day after inoculation, the bacterial growth was quantitated fluorometrically. Therefore resazurin (0.6 mg/ml) was added in a volume of 20 μl to all wells 3 hours after inoculation, and the plates were re-incubated overnight. A change in colour from blue to pink indicated the growth of bacteria. The fluorescence was read in a computer-controlled fluorometer (Cytofluor Biosearch) at an excitation wavelength of 530 nm and an emission wavelength of 590 nm. The % growth inhibition achieved by the compounds was calculated according to standard methods. The IC90 (expressed in μg/ml) was defined as the 90% inhibitory concentration for bacterial growth.
row,IC90 STA B29213,SMILES
1,2.86 µg/mL,COc1nc2ccc(Br)cc2cc1C(c1cccc(Cl)c1)C1(O)CCNC(c2ccc(F)cc2C)C1 (centres unmarked) [Compound 173]
2,2.20 µg/mL,COc1nc2ccc(SC)cc2cc1C(c1ccc(Cl)cc1)C1(O)CCNC(Cc2ccc(F)c(F)c2)C1 (centres unmarked) [Compound 188]
3,>17.57 µg/mL,CS(=O)(=O)c1ccc2[nH]c(=O)c(C(c3ccc(Cl)cc3)C3(O)CCNC(Cc4ccc(F)c(F)c4)C3)cc2c1 (centres unmarked) [Compound 214]
4,13.66 µg/mL,CS(=O)(=O)c1ccc2[nH]c(=O)c(C(c3ccc(Cl)cc3)C3(O)CCNC(Cc4ccc(F)c(F)c4)C3)cc2c1 (centres unmarked) [Compound 215]
5,>14.80 µg/mL,Cc1cc(F)ccc1C1CC(O)(C(c2ccc(Cl)cc2)c2cc3cc(S(C)(=O)=O)ccc3[nH]c2=O)CCN1 (centres unmarked) [Compound 220]
6,3.73 µg/mL,Cc1cc(F)ccc1C1CC(O)(C(c2ccc(Cl)cc2)c2cc3cc(S(C)(=O)=O)ccc3[nH]c2=O)CCN1 (centres unmarked) [Compound 221]
7,>14.78 µg/mL,Cc1cc(F)ccc1C1CC(O)(C(c2ccc(Cl)cc2)c2cc3cc(S(C)(=O)=O)ccc3[nH]c2=O)CCN1 (centres unmarked) [Compound 222]
8,>14.83 µg/mL,Cc1cc(F)ccc1C1CC(O)(C(c2ccc(Cl)cc2)c2cc3cc(S(C)(=O)=O)ccc3[nH]c2=O)CCN1 (centres unmarked) [Compound 223]
9,3.73 µg/mL,Cc1cc(F)ccc1C1CC(O)(C(c2ccc(Cl)cc2)c2cc3cc(S(C)(=O)=O)ccc3[nH]c2=O)CCN1 (centres unmarked) [Compound 224]
10,>14.77 µg/mL,Cc1cc(F)ccc1C1CC(O)(C(c2ccc(Cl)cc2)c2cc3cc(S(C)(=O)=O)ccc3[nH]c2=O)CCN1 (centres unmarked) [Compound 225]
11,1.86 µg/mL,O=c1[nH]c2ccc(Br)cc2cc1C(c1ccc(Cl)cc1)C1(O)CCNCC1Cc1cccc(F)c1 (centres unmarked) [Compound 229]
12,1.67 µg/mL,CSc1ccc2[nH]c(=O)c(C(c3ccc(Cl)cc3)C3(O)CCNC(c4ccccc4)C3)cc2c1 (centres unmarked) [Compound 230]
13,3.30 µg/mL,CSc1ccc2[nH]c(=O)c(C(c3ccc(Cl)cc3)C3(O)CCNC(c4ccccc4)C3)cc2c1 (centres unmarked) [Compound 231]
14,6.65 µg/mL,CSc1ccc2[nH]c(=O)c(C(c3ccc(Cl)cc3)C3(O)CCNC(c4ccccc4)C3)cc2c1 (centres unmarked) [Compound 232]
15,1.67 µg/mL,CSc1ccc2[nH]c(=O)c(C(c3ccc(Cl)cc3)C3(O)CCNC(c4ccccc4)C3)cc2c1 (centres unmarked) [Compound 233]
16,5.24 µg/mL,CSc1ccc2[nH]c(=O)c(C(c3ccc(Cl)cc3)C3(O)CCNC(c4ccccc4)C3)cc2c1 (centres unmarked) [Compound 234]
17,4.17 µg/mL,CSc1ccc2[nH]c(=O)c(C(c3ccc(Cl)cc3)C3(O)CCNC(c4ccccc4)C3)cc2c1 (centres unmarked) [Compound 235]

# Same assay, conditions: Staphylococcus aureus, ATCC29213, 24 h, 90% inhibitory concentration for bacterial growth, resazurin fluorescence, read-out: IC90 STA B29213
row,IC90,SMILES
1,6.6 µg/mL,CSc1ccc2nc(O)c(C(c3ccccc3)C3(O)CCNC(c4ccc(F)cc4C)C3)cc2c1 (centres unmarked) [Compound 182]
2,10.3 µg/mL,Cc1cc(F)ccc1C1CC(O)(C(c2ccccc2)c2cc3cc(-c4cccnc4)ccc3[nH]c2=O)CCN1 (centres unmarked) [Compound 236]
